Measured values: patent US20230145793A1, “SUBSTITUTED PYRIMIDINE OR PYRIDINE AMINE DERIVATIVE, COMPOSITION THEREOF, AND MEDICAL USE THEREOF” (SHANGHAI HAIYAN PHARMACEUTICAL TECHNOLOGY CO., LTD., priority 2020, published 2023)
Read-outs that look alike come from different tables or passages of the source.

Assays:
[1] = target: T1, A2A receptor (Homo sapiens, UniProt P29274); assay: Test 2: inhibitory activity to the A2A receptor, cAMP HTRF in CHO-K1/ADORA2A/Gα15 cells, NECA 1 uM; assay type: cell-based
T1 construct: host or cells: CHO-K1 (co-expressing Gα15)
T1 sequence (P29274 whole entry): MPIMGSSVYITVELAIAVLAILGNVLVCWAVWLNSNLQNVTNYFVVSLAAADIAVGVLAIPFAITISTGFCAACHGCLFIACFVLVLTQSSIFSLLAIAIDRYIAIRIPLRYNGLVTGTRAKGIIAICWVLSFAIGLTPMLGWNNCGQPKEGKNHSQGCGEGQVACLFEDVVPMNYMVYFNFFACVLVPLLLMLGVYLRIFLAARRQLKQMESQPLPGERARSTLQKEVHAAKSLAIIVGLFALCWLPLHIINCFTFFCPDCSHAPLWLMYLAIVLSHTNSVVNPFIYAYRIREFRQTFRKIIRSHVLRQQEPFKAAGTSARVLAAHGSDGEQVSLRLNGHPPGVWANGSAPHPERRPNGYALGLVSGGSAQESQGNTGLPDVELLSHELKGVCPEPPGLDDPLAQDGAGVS
Protocol: (§1) Test 2: Inhibitory Activities to the A2A Receptor and the A2B Receptor
(§2) Screening procedure was as follows:
(§3) 1. The cell density was adjusted with a serum-free medium to 6×10^5 cells/mL.
(§4) 3. The cells were placed still and cultured in an incubator at 37° C. for 30 min.
(§5) 4. 5 μL of cAMP-d2 and 5 μL of cAMP-ab (Cisbio, 62AM4PEB) were added in sequence.
(§6) 5. The 384-well plate was placed in dark at the room temperature for 1 h.
(§7) 6. The plate was read (Victor X5, PerkinElmer), data were analyzed by XLfit nonlinear regression, and IC50 values of the compounds were calculated.

[2] = target: T2, A2B receptor (Homo sapiens, UniProt P29275); assay: Test 2: inhibitory activity to the A2B receptor, cAMP HTRF in CHO-K1/ADORA2B/Gα15 cells, NECA 0.1 uM; assay type: cell-based
T2 construct: host or cells: CHO-K1 (co-expressing Gα15)
T2 sequence (P29275 1-332): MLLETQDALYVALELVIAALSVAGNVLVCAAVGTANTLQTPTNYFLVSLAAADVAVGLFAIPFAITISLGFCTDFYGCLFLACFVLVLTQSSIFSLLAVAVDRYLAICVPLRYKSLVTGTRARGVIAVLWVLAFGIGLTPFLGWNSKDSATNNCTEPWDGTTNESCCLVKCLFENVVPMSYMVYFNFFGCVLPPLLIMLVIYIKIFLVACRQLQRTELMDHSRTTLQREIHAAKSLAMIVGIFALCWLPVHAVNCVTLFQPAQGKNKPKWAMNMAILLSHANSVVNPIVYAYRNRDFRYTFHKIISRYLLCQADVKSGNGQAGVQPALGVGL
Protocol: as §1, §2, §3, §4, §5, §6, §7

[3] = target: T2, A2B receptor; assay: Test 1: inhibitory activity to the A2B receptor, cAMP HTRF in CHO-K1/ADORA2B/Gα15 cells, NECA 10 nM; assay type: cell-based
Protocol: (§8) Test 1: Inhibitory Activities to the A2A Receptor and the A2B Receptor CHO-K1/ADORA2A/Gα15 (GenScript, M00246) and CHO-K1/ADORA2B/Gα15 (GenScript, M00329) cells were cultured in a Ham's F-12 (Gibco, 31765092) medium containing 10% FBS, Zeocin (200 ug/mL), and Hygromycin B (100 ug/mL), or containing 10% FBS, G418 (400 ug/mL), and Hygromycin B (100 ug/mL) under culture conditions specified in the corresponding instruction. Screening procedure was as follows: 1. The cell density was adjusted with a serum-free medium to 6×10^5 cells/mL. 2. 5 uL of cell solution, 2.5 μL of NECA (Sigma, 119140-10MG), and 2.5 μL of compound solution were placed into each well of a 384-well plate (Greiner Bio-One, 784075) in sequence, the final concentration of NECA was 50 nM (CHO-K1/ADORA2A) or 10 nM (CHO-K1/ADORA2B), and the compound solution was subjected to 3-fold dilution from the final concentration of 3 uM. 3. The cells were placed still and cultured in an incubator at 37° C. for 30 min. 4. 5 μL of cAMP-d2 and 5 μL of cAMP-ab (Cisbio, 62AM4PEB) were added in sequence. 5. The 384-well plate was placed in dark at the room temperature for 1 h. 6. The plate was read (Victor X5, PerkinElmer), data were analyzed by XLfit nonlinear regression, and IC50 values of the compounds were calculated.

[4] = target: T1, A2A receptor; assay: Test 1: inhibitory activity to the A2A receptor, cAMP HTRF in CHO-K1/ADORA2A/Gα15 cells, NECA 50 nM; assay type: cell-based
Protocol: as §8

[5] = Test 3: in-vivo pharmacokinetics test in mice (plasma, LC/MS/MS); conditions: mouse, male ICR mice
Protocol: Test 3: In-Vivo Pharmacokinetics Test
Mice were respectively administrated with the compound of the present disclosure by intravenous injection or intragastric administration, and the concentration of the drug in the plasma at different time points was determined by LC/MS/MS to explore pharmacokinetic behavior of the compound of the present disclosure in the mouse so as to evaluate the pharmacokinetic characteristics of the compound.
Experimental animals: healthy adult male ICR mice (weight: 25 to 40 g, 12 mice, mice in the intravenous injection group had free access to water and food, and mice in the intragastric administration group fasted overnight and had free access to water and food 4 h after administration), provided by Beijing Vital River Laboratory Animal Co., Ltd.
Administration method and dosage: before administration, animals that met the experimental requirements were selected, weighed, and marked. The ICR mice were subjected to tail vein administration (2 mg/kg, 5% DMSO, pH=4.5, 20% Captisol) or intragastric administration (10 mg/kg, 5% DMSO, pH=4.5, 20% Captisol).
Blood sample collection: before blood sample collection, each mouse was tied, and about 100 μL of blood was collected from each mouse subjected to administration at a preset blood collection time point through the jugular vein (for the mice subjected to intravenous administration: blood was collected from each mouse at a total of 9 time points, i.e., 0.083 h, 0.25 h, 0.5 h, 1 h, 2 h, 4 h, 6 h, 7.5 h, and 24 h after administration; and for the mice subjected to intragastric administration: blood was collected from each mouse at a total of 9 time points, i.e., 0.083 h, 0.25 h, 0.5 h, 1 h, 2 h, 4 h, 6 h, 7.5 h, and 24 h after administration). The blood was transferred to a test tube (1.5 mL) containing K2EDTA and centrifuged for 4 min (8,000 rpm, 4° C.) to separate out plasma, and the whole process was completed within 15 min after blood collection. All samples were stored in a refrigerator at −20° C. before sample analysis. The concentration of the drug was determined by LC/MS/MS.
Pharmacokinetic property parameters of the compounds of some examples of the present disclosure in the mice under the conditions of same dosage and intravenous administration are shown in Table 3:
Pharmacokinetic property parameters of the compounds of some examples of the present disclosure in the mice under the conditions of same dosage and intragastric administration are shown in Table 4: […]

Row | Compound | IC50 [1] [µM] | IC50 [2] [µM] | IC50 [3] [µM] | IC50 [4] [µM] | AUC(0-t) ([5]; intravenous (tail vein) 2 mg/kg, read-out: Area under the curve AUC0-t) [ng·h/mL] | clearance ([5]; intravenous (tail vein) 2 mg/kg, read-out: Clearance rate CLz) [mL/min/kg] | Cmax ([5]; po, intragastric administration 10 mg/kg) [ng/mL] | AUC(0-t) ([5]; po, intragastric administration 10 mg/kg, read-out: Area under the curve AUClast) [ng·h/mL]
1 | Cc1c(C#N)cccc1-c1cc(-c2cn(Cc3cccc(C(C)(C)O)n3)nn2)nc(N)n1 [Compound D1, reference compound] | 0.065 | 0.075 | – | – | – | – | – | –
2 | Cc1c(C#N)cccc1-c1nc(N)c(F)c(-c2cn(Cc3cccc(C(C)(C)O)n3)nn2)n1 [Compound L-1] | 0.024 | 0.062 | 0.003 | 0.001 | – | – | – | –
3 | Cc1c(C#N)cccc1-c1nc(N)c(F)c(-c2cn(Cc3ccn(CCF)n3)nn2)n1 [Compound L-38] | 0.018 | 0.05 | 0.002 | 0.001 | 2590 | 12.7 | 7210 | 13300
4 | Cc1c(C#N)cccc1-c1nc(N)c(F)c(-c2cn(Cc3ccn(CC(F)F)n3)nn2)n1 [Compound L-44] | 0.022 | 0.064 | 0.004 | 0.001 | – | – | – | –
5 | Cc1c(C#N)cccc1-c1nc(N)c(F)c(-c2cn(Cc3ccn(C4CCOCC4)n3)nn2)n1 [Compound L-89] | 0.011 | 0.068 | 0.005 | < 0.001 | – | – | – | –
6 | Cc1c(C#N)cccc1-c1nc(N)c(F)c(-c2cn(Cc3nc(C(C)(C)O)ccc3O)nn2)n1 [Compound L-94] | 0.016 | 0.038 | – | – | – | – | – | –
